In US9931324B2, “Indolizine derivatives and their use in neurodegenerative diseases” (Merck Patent GmbH, priority 2014, dated 2018) one finds IC50 data, which are given here for 25 molecules.

The target in one test is T1, P2X7 (Homo sapiens, UniProt Q99572).
T1 sequence (Q99572 1-595): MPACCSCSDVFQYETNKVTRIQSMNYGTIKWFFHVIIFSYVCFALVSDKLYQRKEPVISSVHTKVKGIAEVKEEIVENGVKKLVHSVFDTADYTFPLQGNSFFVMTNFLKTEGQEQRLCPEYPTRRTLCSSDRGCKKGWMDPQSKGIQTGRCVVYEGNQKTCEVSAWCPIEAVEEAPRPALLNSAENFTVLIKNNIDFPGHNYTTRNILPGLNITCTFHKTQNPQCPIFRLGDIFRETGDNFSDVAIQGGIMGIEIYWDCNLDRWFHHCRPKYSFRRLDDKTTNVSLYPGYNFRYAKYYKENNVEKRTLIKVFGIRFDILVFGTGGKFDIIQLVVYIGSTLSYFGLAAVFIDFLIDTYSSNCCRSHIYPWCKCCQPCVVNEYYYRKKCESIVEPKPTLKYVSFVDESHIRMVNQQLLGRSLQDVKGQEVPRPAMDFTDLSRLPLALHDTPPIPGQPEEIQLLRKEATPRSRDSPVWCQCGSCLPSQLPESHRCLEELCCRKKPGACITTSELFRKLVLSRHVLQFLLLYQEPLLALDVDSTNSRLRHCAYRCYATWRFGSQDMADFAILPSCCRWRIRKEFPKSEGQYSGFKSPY
Put plainly: Pore permeation assay (YO PRO dye uptake, BzATP-induced). The class given is cell-based. The arrangement: expressed in transfected cells; host or cells: HEK293. Conditions: HEK293 transfected with human P2X7 receptor, BzATP 10 uM, read-out: hP2X7 IC50. As to the method:
Agonist-induced pore formation was determined by measuring cellular uptake of YO PRO fluorescence dye in HEK293 transfected with human P2X7 receptor. A HEK293 cell over expressing human P2X7 was harvested using HQTase reagent to detach the cells from T75 cm flask. The harvested cells are centrifuged @1200 rpm for 5 min at room temperature. The viability of cells was determined by Trypan blue dye and the cells are plated @10,000 cell/well in 50 ul volume in a 384W BD Poly lysine coated plate and incubated overnight at 37 C. After overnight incubation, the culture medium was replaced with 35 ul/well assay buffer (5 mM KCl, 0.1 mM CaCl2, 5 mM Glucose, 10 mM HEPES buffer pH7.4 containing 125 mM NaCl. The serial dilution of compounds was performed using Bravo liquid handling instrument and the compounds were added using Bravo to the cell assay plate starting at 2.5 uM with three dilutions for 10 points. The positive control inhibitor compound was added to column 23. The plate was shaken slowly on a plate shaker for 10 seconds. The cells were incubated with the compound for 20 minutes at room temperature. After the incubation period, YO PRO dye (1 uM) along with BzATP (10 uM) were added to cells at 10 ul/well. The plate was centrifuged at 1000 rpm for 5 seconds and incubated at room temperature for 30 minutes. The uptake of YO PRO dye into the cells was measured using Envision Fluorescence plate reader instrument (Perkin Elmer).
On to `CCOCCc1cc(C(=O)NC[C@@]2(O)CCC[C@@H](C)C2)c2c(Cl)cccn12` [Compound 73], for which the IC50 was 10 to 100 nM.

Regarding `O=C(NCC1(O)CCCC(C(F)(F)F)C1)c1cc(C2CCOC2)n2cccc(Cl)c12` (stereo not drawn) [Compound 74, 8-chloro-N-((1-hydroxy-3-(trifluoromethyl)cyclohexyl)methyl)-3-(tetrahydrofuran-3-yl)indolizine-1-carboxamide], the IC50 is above 1000 nM.

As to `COCCc1cc(C(=O)NCC2(O)CCCC(C)(C)C2)c2c(Cl)cccn12` (stereo not drawn) [Compound 10, 8-chloro-N-((1-hydroxy-3,3-dimethylcyclohexyl)methyl)-3-(2-methoxyethyl) indolizine-1-carboxamide], the IC50 fell in the range of 10 to 100 nM.

Turning to `O=C(NCC1(O)CCC(F)(F)CC1)c1cc(C2CCOCC2)n2cccc(Cl)c12` [Compound 56, 8-chloro-N-((4,4-difluoro-1-hydroxycyclohexyl)methyl)-3-(tetrahydro-2H-pyran-4-yl)indolizine-1-carboxamide], the IC50 was in the range of 10 to 100 nM.

Turning to `C[C@@H]1CCC[C@](O)(CNC(=O)c2cc(C3CCOCC3)n3cccc(Cl)c23)C1` [Compound 27, 8-chloro-N-(((1R,3R)-1-hydroxy-3-methylcyclohexyl)methyl)-3-(tetrahydro-2H-pyran-4-yl)indolizine-1-carboxamide], the IC50 was in the range of 10 to 100 nM.

`COCCc1cc(C(=O)NCC2CCC(F)(F)CC2)c2c(C(F)(F)F)cccn12` [Compound 26, 3-(2-Methoxy-ethyl)-8-trifluoromethyl-indolizine-1-carboxylic Acid (4,4-difluorocyclohexylmethyl)-amide]: the IC50 was 101 to 500 nM.

Take `C[C@@H]1CCC[C@](O)(CNC(=O)c2cc(C3CCOC3)n3cccc(Cl)c23)C1` (stereo partly drawn) [Compound 38, 8-chloro-N-(((1R,3R)-1-hydroxy-3-methylcyclohexyl)methyl)-3-(tetrahydrofuran-3-yl)indolizine-1-carboxamide]: the IC50 was in the range of 10 to 100 nM.

As for `COCCc1cc(C(=O)NCC2(O)CCC(F)(F)CC2)c2c(C(F)(F)F)cccn12` [Compound 49, 3-(2-Methoxy-ethyl)-8-trifluoromethyl-indolizine-1-carboxylic Acid (4,4-difluoro-1-hydroxy cyclohexylmethyl)-amide], the IC50 fell in the range of 101 to 500 nM.

As to `CCOCCc1cc(C(=O)NCC2CCC(F)(F)CC2)c2c(Cl)cccn12` [Compound 19, 8-Chloro-3-(2-ethoxy-ethyl)-indolizine-1-carboxylic Acid (4,4-difluoro-cyclohexylmethyl)-amide], the IC50 is 101 to 500 nM.

Regarding `O=C(NCC1(O)CCCC(F)(F)C1)c1cc(CCO)n2cccc(Cl)c12` (stereo not drawn) [Compound 68, 8-Chloro-3-(2-hydroxy-ethyl)-indolizine-1-carboxylic Acid (3,3-difluoro-1-hydroxy-cyclohexylmethyl)-amide], the IC50 fell in the range of 10 to 100 nM.

As to `COCCc1cc(C(=O)NCc2cccc(C(F)(F)F)c2Cl)c2c(Cl)cccn12` [Compound 3, 8-chloro-N-(2-chloro-3-(trifluoromethyl)benzyl)-3-(2-methoxyethyl) indolizine-1-carboxamide], the IC50 is 101 to 500 nM.

As for `O=C(NCC1CCC(F)(F)CC1)c1cc(C2CCOCC2)n2cccc(Cl)c12` [Compound 33, 8-chloro-N-((4,4-difluorocyclohexyl)methyl)-3-(tetrahydro-2H-pyran-4-yl)indolizine-1-carboxamide], the IC50 was 10 to 100 nM.

In the case of `CC1CC(O)(CNC(=O)c2cc(C3CCOC3)n3cccc(Cl)c23)CCC1(F)F` (stereo not drawn) [Compound 44, 8-chloro-N-((4,4-difluoro-1-hydroxy-3-methylcyclohexyl)methyl)-3-(tetrahydrofuran-3-yl)indolizine-1-carboxamide], the IC50 was in the range of 101 to 500 nM.

Regarding `COCCc1cc(C(=O)NCC2CCC(F)(F)CC2)c2c(C)cccn12` [Compound 25, 3-(2-Methoxy-ethyl)-8-methyl-indolizine-1-carboxylic Acid (4,4-difluoro-cyclohexylmethyl)-amide], the IC50 was 101 to 500 nM.

On to `O=C(NCC1CCC(F)(F)CC1)c1cc(C2(O)CCOC2)n2cccc(Cl)c12` (stereo not drawn) [Compound 55, 8-chloro-N-((4,4-difluorocyclohexyl)methyl)-3-(3-hydroxytetrahydrofuran-3-yl)indolizine-1-carboxamide], for which the IC50 was in the range of 101 to 500 nM.

As to `O=C(NCC1(O)CCCC(C(F)(F)F)C1)c1cc(C2CCOCC2)n2cccc(Cl)c12` (stereo not drawn) [Compound 28, 8-chloro-N-((1-hydroxy-3-(trifluoromethyl)cyclohexyl)methyl)-3-(tetrahydro-2H-pyran-4-yl)indolizine-1-carboxamide], the IC50 was in the range of 500 to 999 nM.

For the molecule `O=C(NCC1(O)CCCC(F)(F)C1)c1cc(C2CCC2)n2cccc(Cl)c12` (stereo not drawn) [Compound 20, 8-chloro-3-cyclobutyl-N-((3,3-difluoro-1-hydroxycyclohexyl)methyl) indolizine-1-carboxamide], the IC50 lay within 10 to 100 nM.

`COCCc1cc(C(=O)NCC2(O)CCC(F)(F)CC2)c2c(C)cccn12` [Compound 46, 3-(2-Methoxy-ethyl)-8-methyl-indolizine-1-carboxylic Acid (4,4-difluoro-1-hydroxy-cyclohexylmethyl)-amide]: the IC50 was in the range of 101 to 500 nM.

In the case of `O=C(NCC1CCC(F)(F)CC1)c1cc(C2(O)COC2)n2cccc(Cl)c12` [Compound 58, 8-Chloro-3-(3-hydroxy-oxetan-3-yl)-indolizine-1-carboxylic acid (4,4-difluoro-cyclohexylmethyl)-amide], the IC50 lay in the range of 101 to 500 nM.

In the case of `O=C(NCC1(O)CCCC(C(F)(F)F)C1)c1cc(C2CCC2)n2cccc(Cl)c12` (stereo not drawn) [Compound 4, 8-chloro-3-cyclobutyl-N-((1-hydroxy-3-(trifluoromethyl)cyclohexyl)methyl) indolizine-1-carboxamide], the IC50 was above 1000 nM.

With `O=C(NCC1CCC(F)(F)CC1)c1cc(CCF)n2cccc(Cl)c12` [Compound 34, 8-Chloro-3-(2-fluoro-ethyl)-indolizine-1-carboxylic Acid (4,4-difluoro-cyclohexylmethyl)-amide], the IC50 fell in the range of 10 to 100 nM.

Turning to `O=C(NCC1CCC(F)(F)CC1)c1ccn2cccc(Cl)c12` [Compound 42], the IC50 was in the range of 101 to 500 nM.

With `CC(CO)c1cc(C(=O)NCC2CCC(F)(F)CC2)c2c(Cl)cccn12` (stereo not drawn) [Compound 75, 8-Chloro-3-(2-hydroxy-1-methyl-ethyl)-indolizine-1-carboxylic Acid (4,4-difluoro-cyclohexylmethyl)-amide], the IC50 was in the range of 10 to 100 nM.

Regarding `CC1CC(O)(CNC(=O)c2cc(C3CCC3)n3cccc(Cl)c23)CCC1(F)F` (stereo not drawn) [Compound 7, 8-chloro-3-cyclobutyl-N-((4,4-difluoro-1-hydroxy-3-methylcyclohexyl)methyl) indolizine-1-carboxamide], the IC50 lay in the range of 101 to 500 nM.

Another test has as its target T1, P2X7. Put plainly: IL-1β release assay in THP-1 cells (sandwich ELISA, BzATP-stimulated). The class given is cell-based. Further details: endogenous in cells; host or cells: THP-1 cells (PMA-differentiated, LPS-primed). As to conditions: LPS primed, 0.8 mM BzATP, mature IL-1β release, read-out: hTHP-1/IL-ib IC50. As to the method: IL-1β release assay: The activation of P2X7 by ATP leads to a fast transient activation of cells resulting in influx of Ca^2+ followed by conversion of pro-IL-1β to active IL-1β. The functional activity of P2X7 compounds was measured by the release of mature IL-1β in the culture medium of THP-1 cells, detected by sandwich ELISA. Cells were maintained in complete growth medium (RPMI 1640+10% HI-FCS+2 mM L-glutamine+1× PS). […] THP-1 cells were harvested from the flask in 50 ml by centrifugation for 3 min at 100 g. The cells were resuspended to 2×10^5 cells/ml in medium supplemented with 0.5 μM PMA and incubated. The cells were washed and resuspended to 1.5×10^5 cells/ml in medium complemented with 10 ng/ml LPS, and the cells were primed for 4 h at 37° C., 5% CO2. After addition of 20 μL of prediluted test compounds, blank, standard and control reagents, cells were incubated for a further 20 min at 37° C. and stimulated with 0.8 mM BzATP for 30 minutes. The cells were centrifuged, supernatant was collected and the presence of mature IL-1β was detected using Dual human IL-1b kit following manufacturer's instruction. The tetrahydrobenzodiazepine analogs effectively modulated the activity of P2X7 in the cells as measured by the levels of pro-inflammatory cytokine IL-1β, which is released by the activation of P2X7 receptor.
Consider `CCOCCc1cc(C(=O)NC[C@@]2(O)CCC[C@@H](C)C2)c2c(Cl)cccn12` [Compound 73], for which the IC50 was in the range of 10 to 100 nM.

`COCCc1cc(C(=O)NCC2(O)CCCC(C)(C)C2)c2c(Cl)cccn12` (stereo not drawn) [Compound 10, 8-chloro-N-((1-hydroxy-3,3-dimethylcyclohexyl)methyl)-3-(2-methoxyethyl) indolizine-1-carboxamide]: the IC50 fell in the range of 10 to 100 nM.

In the case of `COCCc1cc(C(=O)NCCC2(O)CCCC2)c2c(Cl)cccn12` [Compound 59, 8-chloro-N-(2-(1-hydroxycyclopentyl)ethyl)-3-(2-methoxyethyl)indolizine-1-carboxamide], the IC50 was above 1000 nM.
